Measured values taken from article PMC10342010, “Djakonoviosides A, A1, A2, B1–B4 — Triterpene Monosulfated Tetra- and Pentaosides from the Sea Cucumber Cucumaria djakonovi: The First Finding of a Hemiketal Fragment in the Aglycones; Activity against Human Breast Cancer Cell Lines” (International Journal of Molecular Sciences, 2023).
Structures can show the parent of a compound that is named as a salt.

Columns and labels:
human erythrocytes = assay: Hemolytic activity; format: cell-based; conditions: for ED50, Erythrocytes: 1 h incubation at 37 °C, 50% hemolysis
Method: Erythrocytes were obtained from human blood (AB(IV) Rh+) by centrifugation with phosphate-buffered saline (PBS) (pH 7.4) at 4 °C for 5 min by 450 g on a LABOFUGE 400R centrifuge (Heraeus, Hanau, Germany) three times. Then, the erythrocytes residue was resuspended in ice cold phosphate saline buffer (pH 7.4) to a final optical density of 1.5 at 700 nm and kept on ice. For the hemolytic assay, 180 µL of erythrocyte suspension was mixed with 20 µL of test compound solution, as well as control, chitonoidoside L [33], in V-bottom 96-well plates. After 1 h of incubation at 37 °C, the plates were exposed to centrifugation for 10 min at 900 g in a laboratory LMC-3000 centrifuge (Biosan, Riga, Latvia). Then, 100 µL of supernatant was carefully decanted and transferred into new flat plates. The values of the lysis of the erythrocytes were found by measuring the concentration of hemoglobin in the supernatant with a Multiskan FC microplate photometer (Thermo Fisher Scientific, Waltham, MA, USA); λ = 570 nm. […] All the experiments were carried out in triple repetitions; p < 0.01.

MDA-MB-231 cells [1] = assay: Wound scratch migration assay; format: cell-based, human
Excerpt: To analyze the influence of the tested compounds on tumor cell migration, MDA-MB-231 cells attached to the plate’s plastic bottom were separated by a silicone insert from special migration plates (Culture-insert 2 Well 24, ibiTreat); then, the insert was removed, leaving a gap of 500 ± 50 μm (according to the manufacturer’s data) between the cells. The cells were washed twice by PBS to remove cell debris and floating cells and loaded with a fluorescent probe, a (5,6)-carboxyfluorescein succinimidyl ester (CFDA SE) dye (LumiTrace CFDA SE kit, Lumiprobe, Moscow, Russia). The initial solution of CFDA SE at a concentration of 5 mM in DMSO was dissolved in PBS to prepare a 10 μM solution and was added to the cells for 5 min at 37 °C; then, the cells were washed twice with PBS, and fresh culture medium was added. After that, the cells were treated with various concentrations of glycosides and left for 8 and 24 h. Cells treated with culture medium only were used as control. Cell migration into the wound area was then observed under a fluorescence microscope (MIB-2-FL, LOMO, Saint Peterburg, Russia) with an objective ×10 magnification.

[2] = Cytotoxic activity (MTS assay); format: cell-based, human; conditions: human
Method: (§1) Then, the cells were incubated with 10 µL MTS ([3-(4,5-dimethylthiazol-2-yl)-5-(3-carboxymethoxyphenyl)-2-(4-sulfophenyl)-2H-tetrazolium) for 4 h, and the absorbance in each well was determined at 490/630 nm with a PHERA star FS plate reader (BMG Labtech, Ortenberg, Germany). The experiments were conducted in triplicate.

[3] = Cytotoxic activity (MTT assay); format: cell-based, human; conditions: human
Method: (§2) After incubation, the glycosides with medium were replaced by 100 μL of fresh medium. Then, 10 μL of MTT (3-(4,5-dimethylthiazol-2-yl)-2,5-diphenyltetrazolium bromide) (Sigma-Aldrich, St. Louis, MO, USA) stock solution (5 mg/mL) was added to each well, followed by incubation of the microplate for 4 h. After this procedure, 100 μL of SDS-HCl solution (1 g SDS/10 mL d-H2O/17 μ[…] HCl) was added to each well and incubated for 18 h. The absorbance of the converted dye formazan was determined with a Multiskan FC microplate photometer (Thermo Fisher Scientific, Waltham, MA, USA) at 570 nm.

MDA-MB-231 cells [4] = assay: Colony formation (clonogenic) assay; format: cell-based, human; conditions: Homo sapiens; MDA-MB-231, concentration 2 μM; read-out: Inhibition of colony growth, % of the control
Method: The influence of glycosides on the proliferation of MDA-MB-231 cells was analyzed by clonogenic assay. Briefly, MDA-MB-231 cells were cultured on 6-well plates at a density of 1 × 10^3 cells per well in control media (MEM media, 10% FBS, 10,000 U/mL of penicillin and 10,000 μg/mL of streptomycin) or in media supplemented with different concentrations of glycosides. Cells were incubated for one week at 37 °C with 5% CO2 until the cells in the control plates formed colonies that were visible to the eye and were of a substantial size (at least 50 cells per colony). For fixation and staining, the media were removed and the cells were washed twice with PBS. The colonies were fixed with methanol for 25 min, then washed with PBS and stained with 0.5% crystal violet solution for 25 min at room temperature. The plates were then washed with water and air dried.

[5] = Cytotoxic activity (MTT assay); format: cell-based, human; conditions: human; remark: listed apart in the source
Method: as §2

cancer cell lines = assay: Cytotoxic action against cancer cell lines (summary in words); format: cell-based, human; conditions: cancer cell lines HL-60, MCF-7, T-47D, MDA-MB-231
Method: All the substances were tested in concentrations from 0.1 µM to 50 µM. Cisplatin was used as positive control. The cell suspension (180 µL) and solutions (20 µL) of tested glycosides in different concentrations were injected in wells of 96-well plates (MCF-7, T-47D, MDA-MB-231, and HEK293—7 × 10^3 cells/well) and incubated at 37 °C for 24 h in an atmosphere with 5% CO2. Glycosides 1 and 2, cucumarioside A0-1, and okhotoside A1-1 at concentrations of 1.25–10.0 μM were incubated with MDA-MB-231 cells at 37 °C for 24, 48, and 72 h in an atmosphere with 5% CO2. After incubation, the glycosides with medium were replaced by 100 µL of fresh medium. Then, 10 µL of MTT (3-(4,5-dimethylthiazol-2-yl)-2,5-diphenyltetrazolium bromide) (Sigma-Aldrich, St. Louis, MO, USA) stock solution (5 mg/mL) was added to each well, followed by incubation of the microplate for 4 h. After this procedure, 100 µL of SDS-HCl solution (1 g SDS/10 mL d-H2O/17 µL 6 N HCl) was added to each well and incubated for 18 h. The absorbance of the converted dye formazan was determined with a Multiskan FC microplate photometer (Thermo Fisher Scientific, Waltham, MA, USA) at 570 nm. […] The experiments were conducted in triplicate; p < 0.05.
as §1, with “triplicate. The results were presented as the percentage of inhibition that produced a reduction in absorbance after tested glycosides treatment compared to the nontreated cells (negative control); p < 0.01.” for “triplicate.”

[6] = Cytotoxic activity (MTT assay); format: cell-based, human; conditions: human; remark: listed apart in the source
Method: as §2

[7] = Cytotoxic activity (MTT assay); format: cell-based, human; conditions: human; remark: listed apart in the source
Method: as §2

CO[C@@H]1[C@@H](O)[C@H](O[C@@H]2[C@@H](O)[C@H](O[C@H]3[C@H](O)[C@@H](O)[C@H](O[C@H]4[C@H](O[C@H]5CC[C@]6(C)[C@@H]7CCC89C(=O)O[C@@](C)([C@H](O)C(=O)CC(C)C)[C@H]8[C@@H](OC(C)=O)C[C@@]9(C)C7=CC[C@H]6C5(C)C)OC[C@@H](OS(=O)(=O)O)[C@@H]4O)O[C@@H]3C)OC[C@H]2O)O[C@H](CO)[C@H]1O (stereo partly drawn) [djakonovioside A1 (2), 3β-O-[3-O-methyl-β-D-glucopyranosyl-(1→3)-β-D-xylopyranosyl-(1→4)-β-D-quinovopyranosyl-(1→2)-4-O-sodium sulfate-β-D-xylopyranosyl}-16β-acetoxy,22S-hydroxy,23-oxo-holost-7-en]
ED50, Erythrocytes (human erythrocytes): 2.26 ± 0.25 µM | inhibition at 2 µM (MDA-MB-231 cells [1]; Homo sapiens, MDA-MB-231, 2 μM, 24 h incubation, read-out: Inhibition of migration as compared to control): 79.5 ± 9.12% | IC50 at 24 h [2]: 4.44 ± 0.37 µM | EC50 at 48 h [3]: 7.33 µM | EC50 at 72 h [3]: 6.25 µM | inhibition at 2 µM (MDA-MB-231 cells [4]): 19.2 ± 0.25%

COC1C(O)C(CO)OC(OC2C(O)COC(OC3C(C)OC(OC4C(OC5CCC6(C)C7CCC89C(=O)OC%10(C)C(O)C(O)(CC(C)C)OC(CC8(C)C7=CCC6C5(C)C)C%109)OCC(OS(=O)(=O)O)C4O)C(O)C3O)C2O)C1O [djakonovioside A2 (3), 3β-O-[3-O-methyl-β-D-glucopyranosyl-(1→3)-β-D-xylopyranosyl-(1→4)-β-D-quinovopyranosyl-(1→2)-4-O-sodium sulfate-β-D-xylopyranosyl}-22S-hydroxyholost-7-en-23R,16β-hemiketal]
IC50 at 24 h [5]: > 50 µM | Hemolytic action (in words) (human erythrocytes): moderately hemolytic | ED50, Erythrocytes (human erythrocytes): 30.86 ± 0.97 µM | IC50 at 24 h [2]: > 50 µM | IC50 at 24 h [3]: > 50 µM | Activity against cancer cells (in words) (cancer cell lines): inactive | IC50 at 24 h [6]: > 50 µM | IC50 at 24 h [7]: > 50 µM

CO[C@@H]1[C@@H](O)[C@H](O[C@@H]2[C@@H](O)[C@H](O[C@H]3[C@H](O)[C@@H](O[C@@H]4OC[C@@H](O)[C@H](O)[C@H]4O)[C@H](O[C@H]4[C@H](O[C@H]5CC[C@]6(C)[C@@H]7CCC89C(=O)O[C@@](C)([C@H](O)C(=O)CC(C)C)[C@H]8[C@@H](OC(C)=O)C[C@@]9(C)C7=CC[C@H]6C5(C)C)OC[C@@H](OS(=O)(=O)O)[C@@H]4O)O[C@@H]3C)OC[C@H]2O)O[C@H](CO)[C@H]1O (stereo partly drawn) [djakonovioside B1 (4), 3β-O-{3-O-methyl-β-D-glucopyranosyl-(1→3)-β-D-xylopyranosyl-(1→4)-[(1→2)-β-D-xylopyranosyl]-β-D-quinovopyranosyl-(1→2)-4-O-sodium sulfate-β-D-xylopyranosyl}-16β-acetoxy,22S-hydroxy,23-oxo-holost-7-en]
ED50, Erythrocytes (human erythrocytes): 6.03 ± 0.47 µM | IC50 at 24 h [2]: 20.1 ± 0.8 µM

COC1C(O)C(CO)OC(OC2C(O)COC(OC3C(C)OC(OC4C(OC5CCC6(C)C7CCC89C(=O)OC%10(C)C(O)C(O)(CC(C)C)OC(CC8(C)C7=CCC6C5(C)C)C%109)OCC(OS(=O)(=O)O)C4O)C(OC4OCC(O)C(O)C4O)C3O)C2O)C1O [djakonovioside B4 (7), 3β-O-{3-O-methyl-β-D-glucopyranosyl-(1→3)-β-D-xylopyranosyl-(1→4)-[(1→2)-β-D-xylopyranosyl]-β-D-quinovopyranosyl-(1→2)-4-O-sodium sulfate-β-D-xylopyranosyl}-22S-hydroxyholost-7-en-23R,16β-hemiketal]
IC50 at 24 h [5]: > 50 µM | Hemolytic action (in words) (human erythrocytes): moderately hemolytic | ED50, Erythrocytes (human erythrocytes): 17.07 ± 1.15 µM | IC50 at 24 h [2]: > 50 µM | IC50 at 24 h [3]: > 50 µM | Activity against cancer cells (in words) (cancer cell lines): inactive | IC50 at 24 h [6]: > 50 µM | IC50 at 24 h [7]: > 50 µM

CO[C@@H]1[C@@H](O)[C@H](O[C@@H]2[C@@H](O)[C@H](O[C@H]3[C@H](O)[C@@H](O)[C@H](O[C@H]4[C@H](O[C@H]5CC[C@]6(C)[C@@H]7CCC89C(=O)O[C@@](C)(C[C@@H](O)CC(C)C)[C@H]8[C@@H](OC(C)=O)C[C@@]9(C)C7=CC[C@H]6C5(C)C)OC[C@@H](OS(=O)(=O)O)[C@@H]4O)O[C@@H]3C)OC[C@H]2O)O[C@H](CO)[C@H]1O (stereo partly drawn) [djakonovioside A (1), 3β-O-[3-O-methyl-β-D-glucopyranosyl-(1→3)-β-D-xylopyranosyl-(1→4)-β-D-quinovopyranosyl-(1→2)-4-O-sodium sulfate-β-D-xylopyranosyl}-16β-acetoxy,23S-hydroxyholost-7-en]
ED50, Erythrocytes (human erythrocytes): 2.46 ± 0.22 µM | Blockage of migration in relation to control (MDA-MB-231 cells [1]; MDA-MB-231, 1 μM, 24 h): 79.92 ± 0.27% | IC50 at 24 h [2]: 6.05 ± 0.17 µM | EC50 at 48 h [3]: 4.45 µM | EC50 at 72 h [3]: 3.77 µM | inhibition at 2 µM (MDA-MB-231 cells [4]): 41.4 ± 3.16%

COC1C(O)C(CO)OC(OC2C(O)COC(OC3C(C)OC(OC4C(OC5CCC6(C)C7CCC89C(=O)OC%10(C)CC(O)(CC(C)C)OC(CC8(C)C7=CCC6C5(C)C)C%109)OCC(OS(=O)(=O)O)C4O)C(OC4OCC(O)C(O)C4O)C3O)C2O)C1O [djakonovioside B2 (5), 3β-O-{3-O-methyl-β-D-glucopyranosyl-(1→3)-β-D-xylopyranosyl-(1→4)-[(1→2)-β-D-xylopyranosyl]-β-D-quinovopyranosyl-(1→2)-4-O-sodium sulfate-β-D-xylopyranosyl}-holost-7-en-23R,16β-hemiketal]
Hemolytic action (in words) (human erythrocytes): moderately hemolytic | ED50, Erythrocytes (human erythrocytes): 16.34 ± 0.34 µM | IC50 at 24 h [2]: 38.6 ± 1.05 µM | Activity against cancer cells (in words) (cancer cell lines): inactive
